From patent publication US10376531B2, “Substituted-6,8-dioxabicyclo[3.2.1]octane-2,3-diol compounds as targeting agents of ASGPR” (Pfizer Inc., priority 2014, dated 2019)
Where “and” joins values, the source holds several entries; their conditions need not be identical. Identical values can stand only once.

Target: Biotinylated ASGPR (ASGPr H1 wild type) (Homo sapiens (Human), UniProt P07306)
Experiment: Surface plasmon resonance (SPR) binding assay
Details: Biacore 3000, 25° C, immobilized biotinylated ASGPR, each run separately reported or n and standard deviation noted, steady state fit for compounds and single conjugates, kinetic fit for multimeric conjugates
Protocol: Preparation of Biotinylated ASGPR:
ASGPr H1 wild type was expressed as an insoluble inclusion body (IB) in E. coli. The cell pellet was re-suspended in TBS buffer pH 8.0 with 0.1 mg/mL lysozyme+25 microg/mL DNase+10 microg/mL RNase+10 mM MgCl2 and stirred on ice until well blended. The mixture was passed through a microfluidizer twice and centrifuged 30 minutes at 30,000×g. The resultant IB pellet was washed with TBS buffer pH 8.0+3M urea and centrifuged and this process was repeated three additional times with water. The IB pellet was
solubilized in 10 mM Tris+8M urea+100 mM β-mercaptoethanol (pH 8.5), stirred for approximately 20 minutes, then centrifuged to discard any precipitate. For the following manipulations, “buffer T” refers to 20 mM Tris+0.5 M NaCl+25 mM CaCl2. The supernatant was diluted to approximately 0.5 mg/mL in buffer T+2 mM β-mercaptoethanol+8M urea (pH 8.0), then dialysed vs. 8-10× excess volume of buffer T+2 mM β-mercaptoethanol+2 M urea (pH 8.0) overnight at 4° C. Dialysis was repeated in buffer T+1 mM β-mercaptoethanol+1 M urea (pH 8.0) for approximately 24 h at 4° C. with several volume changes with a final dialysis vs. buffer T+5 mM GSH+1 mM GSSG (pH 7.5) with 3 volume changes. The resulting sample was centrifuged and the supernatant was loaded onto an N-acetyl-D-galactosamine agarose packed Pharmacia XK 26 column, equilibrated in buffer T+2 mM TCEP (pH 8.0). The column was washed with this buffer until baseline was re-established. The bound protein was eluted with 20 mM Tris+0.5 M NaCl+2 mM TCEP+2 mM EDTA (pH 8.0). The final yield was approximately 50 mg from 5 L (70 wgm.) E. coli cell pellet. While BSA has one cysteine (Cys34) not engaged in disulfide bonding, this thiol group is often blocked as a mixed disulfide with small thiols such as cysteine, or as the sulfenic acid by aerobic oxidation. […] Mild disulfide reduction conditions were chosen so as not to disrupt buried intra-strand (solvent inaccessible) crosslinks. Thus, immediately prior to biotinylation, the ASGPR sample was first incubated with 1 mM TCEP to ensure that the sample contained a single free thiol. The protein was reacted with a 19-fold molar excess of Pierce Maleimide-PEG2-biotin reagent in PBS overnight at 4° C. Excess biotin was removed from the sample using either PD-10 columns (GE Healthcare) or Zeba Spin Desalting columns (Thermo/Pierce) using manufacturer protocols. LC-MS analysis of the product verified the presence of a single mass with addition of 525 amu consistent with the molecular weight of the maleimide adduct. […] No such outcomes were observed. […] SPR Binding Measurements:
All SPR measurements with compounds were performed using a Biacore 3000 (GE Healthcare) at 25° C. Biotinylated ASGPR was immobilized typically at 2000-3000 resonance units (Ru) using either SA sensor chips (GE Healthcare) or custom sensor chips with Neutravidin (Pierce Biochemical) immobilized by standard amine coupling to CM5 sensor chips (GE Healthcare). The running buffer was HBS (10 mM HEPES, 150 mM NaCl), 20 mM CaCl2, 0.01% p20, 3% DMSO or 50 mM tris, 150 mM NaCl, 50 mM CaCl2), 0.01% p20, 3% DMSO pH 7.5. Compounds were diluted into running buffer at a concentration of 900 uM and serially diluted 3 fold to 3.7 uM. Compound solutions were injected at 50 ul/min for 1 min followed by a 1 min dissociation in duplicate for each concentration. For the multimeric conjugates (dimers, trimers), the conjugates were diluted in running buffer to concentrations of 100 nM or 10 nM and serially diluted. Conjugates were injected for 2 min and off rates were detected for 300 or 600 sec. After completion of off phase data the compounds were displaced using an injection of 900 uM GalNAc returning the receptor surface to the free state. All data was processed using Scrubber2 (Biologic Software, Inc.) to zero, align, reference and correct for excluded volume effects. […]

Sequence of Biotinylated ASGPR (ASGPr H1 wild type) (P07306 161-278): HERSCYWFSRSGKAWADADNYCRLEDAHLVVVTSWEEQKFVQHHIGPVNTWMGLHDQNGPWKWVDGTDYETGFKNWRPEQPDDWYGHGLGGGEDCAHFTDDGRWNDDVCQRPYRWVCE

Row | SMILES | Kd
1 | CCCOC[C@@]12CO[C@@H](O1)[C@H](NC(C)=O)[C@@H](O)[C@H]2O [Compound 18, N-[(1S,2R,3R,4R,5S)-2,3-dihydroxy-1-(propoxymethyl)-6,8-dioxabicyclo[3.2.1]oct-4-yl]acetamide] | 2.8 µM and 3.8 µM and 3.1 µM and 2.3 µM
2 | CC(=O)N[C@H]1[C@H]2OC[C@](CO)(O2)[C@H](O)[C@@H]1O [Compound 3, N-((1S,2R,3R,4R,5S)-2,3-dihydroxy-1-(hydroxymethyl)-6,8-dioxabicyclo[3.2.1]octan-4-yl)acetamide] | 7.18 µM
3 | CN(C(=O)OC(C)(C)C)[C@H]1[C@H]2OC[C@](CO)(O2)[C@H](O)[C@@H]1O [Compound 31, tert-butyl [(1S,2R,3R,4R,5S)-2,3-dihydroxy-1-(hydroxymethyl)-6,8-dioxabicyclo[3.2.1]oct-4-yl]methylcarbamate] | 14 µM and 10.6 µM and 15.6 µM and 17.3 µM
4 | O=C(N[C@H]1[C@H]2OC[C@](CO)(O2)[C@H](O)[C@@H]1O)C(F)(F)F [Compound 24, N-[(1S,2R,3R,4R,5S)-2,3-dihydroxy-1-(hydroxymethyl)-6,8-dioxabicyclo[3.2.1]oct-4-yl]-2,2,2-trifluoroacetamide] | 1.1 µM and 2 µM and 2.3 µM and 1.4 µM (2×) and 700 nM and 800 nM and 1.6 µM
5 | [N-]=[N+]=N[C@H]1[C@H]2OC[C@](CO)(O2)[C@H](O)[C@@H]1O [Compound 1, (1S,2R,3R,4R,5S)-4-azido-1-(hydroxymethyl)-6,8-dioxabicyclo[3.2.1]octane-2,3-diol] | 9 µM
6 | CCCCOC[C@@]12CO[C@@H](O1)[C@H](NC(C)=O)[C@@H](O)[C@H]2O [Compound 19, N-[(1S,2R,3R,4R,5S)-1-(butoxymethyl)-2,3-dihydroxy-6,8-dioxabicyclo[3.2.1]oct-4-yl]acetamide] | 3.3 µM and 3.2 µM and 7.7 µM
7 | CCOC[C@@]12CO[C@@H](O1)[C@H](NC(C)=O)[C@@H](O)[C@H]2O [Compound 17, N-[(1S,2R,3R,4R,5S)-1-(ethoxymethyl)-2,3-dihydroxy-6,8-dioxabicyclo[3.2.1]oct-4-yl]acetamide] | 5.3 µM and 3.4 µM and 2.6 µM
8 | CCC(=O)N[C@H]1[C@H]2OC[C@](CO)(O2)[C@H](O)[C@@H]1O [Compound 25, N-[(1S,2R,3R,4R,5S)-2,3-dihydroxy-1-(hydroxymethyl)-6,8-dioxabicyclo[3.2.1]oct-4-yl]propanamide] | 2.2 µM and 3 µM and 2.7 µM and 3.2 µM and 4.3 µM
9 | CCCCCCOC[C@@]12CO[C@@H](O1)[C@H](NC(C)=O)[C@@H](O)[C@H]2O [Compound 21, N-{(1S,2R,3R,4R,5S)-1-[(hexyloxy)methyl]-2,3-dihydroxy-6,8-dioxabicyclo[3.2.1]oct-4-yl}acetamide] | 3.4 µM and 1.8 µM
10 | CCCCCOC[C@@]12CO[C@@H](O1)[C@H](NC(C)=O)[C@@H](O)[C@H]2O [Compound 20, N-{(1S,2R,3R,4R,5S)-2,3-dihydroxy-1-[(pentyloxy)methyl]-6,8-dioxabicyclo[3.2.1]oct-4-yl}acetamide] | 2.18 µM and 3.8 µM and 4.2 µM

The next lines start with the values.

Row | Kd | SMILES
11 | 199 µM and 240 µM and 260 µM and 300 µM | CO[C@H]1OC(CO)(CO)[C@H](O)[C@H](O)[C@H]1NC(C)=O [II-b]
12 | 60 µM and 96 µM and 140 µM and 110 µM and 149 µM and 117 µM | CS(=O)(=O)N[C@H]1[C@H]2OC[C@](CO)(O2)[C@H](O)[C@@H]1O [Compound 26, N-[(1S,2R,3R,4R,5S)-2,3-dihydroxy-1-(hydroxymethyl)-6,8-dioxabicyclo[3.2.1]oct-4-yl]methanesulfonamide]
13 | 5.5 µM and 7.2 µM and 6.7 µM | COCCOCCOCCOCCOC[C@@]12CO[C@@H](O1)[C@H](NC(C)=O)[C@@H](O)[C@H]2O [Compound 22, N-[(1S,2R,3R,4R,5S)-2,3-dihydroxy-1-(2,5,8,11,14-pentaoxapentadec-1-yl)-6,8-dioxabicyclo[3.2.1]oct-4-yl]acetamide]
14 | 110 µM and 83 µM and 210 µM and 240 µM and 132 µM and 192 µM | CN([C@H]1[C@H]2OC[C@](CO)(O2)[C@H](O)[C@@H]1O)S(C)(=O)=O [Compound 30, N-[(1S,2R,3R,4R,5S)-2,3-dihydroxy-1-(hydroxymethyl)-6,8-dioxabicyclo[3.2.1]oct-4-yl]-N-methylmethanesulfonamide]
15 | 1.2 µM and 1.8 µM and 2.1 µM and 1.4 µM and 2.4 µM and 2.9 µM | O=C(CC(F)(F)F)N[C@H]1[C@H]2OC[C@](CO)(O2)[C@H](O)[C@@H]1O [Compound 28, N-[(1S,2R,3R,4R,5S)-2,3-dihydroxy-1-(hydroxymethyl)-6,8-dioxabicyclo[3.2.1]oct-4-yl]-3,3,3-trifluoropropanamide]
16 | 0.7 µM and 1.9 µM and 1.2 µM and 1 µM and 1.5 µM and 0.5 µM | O=C(N[C@H]1[C@H]2OC[C@](CO)(O2)[C@H](O)[C@@H]1O)C(F)F [Compound 27, N-[(1S,2R,3R,4R,5S)-2,3-dihydroxy-1-(hydroxymethyl)-6,8-dioxabicyclo[3.2.1]oct-4-yl]-2,2-difluoroacetamide]
17 | 6.9 µM and 11.6 µM and 8.8 µM and 15.9 µM and 11.7 µM and 6.4 µM | CC(=O)N(C)[C@H]1[C@H]2OC[C@](CO)(O2)[C@H](O)[C@@H]1O [Compound 29, N-[(1S,2R,3R,4R,5S)-2,3-dihydroxy-1-(hydroxymethyl)-6,8-dioxabicyclo[3.2.1]oct-4-yl]-N-methylacetamide]
